# Target: Myc proto-oncogene protein (Homo sapiens, UniProt P01106)
# Test: Inhibition of human c-Myc assessed as reduction in c-Myc/Max/Ebox DNA complex formation using pre-formed complex of c-Myc and biotinylated DNA containing single Ebox-sequence followed by compound addition and further addition of his6-tagged c-Max and incubated for 2 hrs by AlphaScreen assay
# Myc proto-oncogene protein, sequence (P01106 whole entry): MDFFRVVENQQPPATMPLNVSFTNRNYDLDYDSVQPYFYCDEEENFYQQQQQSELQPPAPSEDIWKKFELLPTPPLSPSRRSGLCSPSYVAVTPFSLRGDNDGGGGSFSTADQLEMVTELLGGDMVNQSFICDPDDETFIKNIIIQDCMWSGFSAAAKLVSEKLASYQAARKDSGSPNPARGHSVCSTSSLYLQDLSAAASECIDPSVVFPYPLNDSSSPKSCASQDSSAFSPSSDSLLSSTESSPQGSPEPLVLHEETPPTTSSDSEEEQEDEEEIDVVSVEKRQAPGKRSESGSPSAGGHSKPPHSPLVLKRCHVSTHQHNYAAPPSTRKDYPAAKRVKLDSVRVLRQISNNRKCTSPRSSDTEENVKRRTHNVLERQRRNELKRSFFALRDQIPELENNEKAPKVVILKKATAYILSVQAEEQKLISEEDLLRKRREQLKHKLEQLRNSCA
row,SMILES,IC50 [µM]
1,COCCNCCC(=O)Nc1sc2c(c1-c1nc3ccc(-c4cc(F)cnc4OC)cc3s1)CCNC2,> 10
2,COCCNCCC(=O)Nc1sc2c(c1-c1nc3ccc(-c4ccc(S(=O)(=O)NC5CC5)cc4)cc3s1)CCNC2,> 10
3,COCCNCCC(=O)Nc1sc2c(c1-c1nc3cc(-c4ccc(S(=O)(=O)NC5CC5)cc4)ccc3s1)CCNC2,> 10
4,COCCNCCC(=O)Nc1sc2c(c1-c1nc3ccc(-c4ccc(C(=O)OC)nc4)cc3s1)CCNC2,1 to 10
5,CNc1ncc2cc(-c3ccc4sc(-c5c(NC(=O)CCNCCOC)sc6c5CCNC6)nc4c3)ccc2n1,> 10
6,COCCNCCC(=O)Nc1sc2c(c1-c1nc3ccc(-c4cnccc4C)cc3s1)CCNC2,> 10
7,COCCNCCC(=O)Nc1sc2c(c1-c1nc3ccc(-c4cccnc4OC)cc3s1)CCNC2,1 to 10
8,COCCNCCC(=O)Nc1sc2c(c1-c1nc3cc(-c4ccccc4Cl)ccc3s1)CCNC2,1 to 10
9,COCCNCCC(=O)Nc1sc2c(c1-c1nc3cc(-c4ccc5c(c4)OCO5)ccc3s1)CCNC2,> 10
10,CC(=O)Nc1ccc(-c2ccc3sc(-c4c(NC(=O)CCNC(C)C)sc5c4CCNC5)nc3c2)cc1,0.3 to 1
11,COCCNCCC(=O)Nc1sc2c(c1-c1nc3cc(-c4cccc(C(=O)NCCN(C)C)c4)ccc3s1)CCNC2,0.3 to 1
12,COCCNCCC(=O)Nc1sc2c(c1-c1nc3ccc(-c4cccc(C(F)(F)F)c4)cc3s1)CCNC2,> 10
13,COCCNCCC(=O)Nc1sc2c(c1-c1nc3ccc(-c4c(C)nn(C)c4C)cc3s1)CCNC2,> 10
14,CC(C)NCCC(=O)Nc1sc2c(c1-c1nc3cc(C(C)O)ccc3s1)CCNC2 (centres undefined),< 0.3
15,CCOc1ncccc1-c1ccc2nc(-c3c(NC(=O)CCNCCOC)sc4c3CCNC4)sc2c1,> 10
16,COCCNCCC(=O)Nc1sc2c(c1-c1nc3cc(-c4ccc(OC)c(OC)c4)ccc3s1)CCNC2,> 10
17,COCCNCCC(=O)Nc1sc2c(c1-c1nc3cc(-c4c(C)n[nH]c4C)ccc3s1)CCNC2,1 to 10
18,COCCNCCC(=O)Nc1sc2c(c1-c1nc3ccc(-c4ccc(OC)nc4C)cc3s1)CCNC2,> 10
19,COCCNCCC(=O)Nc1sc2c(c1-c1nc3ccc(-c4ccc(C(F)(F)F)nc4)cc3s1)CCNC2,> 10
20,COCCNCCC(=O)Nc1sc2c(c1-c1nc3ccc(-c4cc5cccc(OC)c5[nH]4)cc3s1)CCNC2,1 to 10
21,COCCNCCC(=O)Nc1sc2c(c1-c1nc3ccc(-c4c(F)cccc4F)cc3s1)CCNC2,> 10
22,COCCNCCC(=O)Nc1sc2c(c1-c1nc3cc(-c4ccc(C)nc4OC)ccc3s1)CCNC2,1 to 10
23,COCCNCCC(=O)Nc1sc2c(c1-c1nc3ccc(-c4ccccc4O)cc3s1)CCNC2,> 10

row,SMILES,IC50 [µM]
1,COCCNCCC(=O)Nc1sc2c(c1-c1nc3ccc(-c4ccc(OC(C)C)nc4)cc3s1)CCNC2,> 10
2,CC(C)N1CCc2c(sc(NC(=O)CCN3CCc4ccccc4C3)c2-c2nc3ccccc3s2)C1,> 10
3,COCCNCCC(=O)Nc1sc2c(c1-c1nc3ccc(-c4ccc(F)nc4F)cc3s1)CCNC2,> 10
4,COCCNCCC(=O)Nc1sc2c(c1-c1nc3ccc(-c4cncc(OC)c4)cc3s1)CCNC2,1 to 10
5,COCCNCCC(=O)Nc1sc2c(c1-c1nc3ccc(-c4cncc(C#N)c4)cc3s1)CCNC2,1 to 10
6,COCCNCCC(=O)Nc1sc2c(c1-c1nc3cc(-c4ccncc4Cl)ccc3s1)CCNC2,> 10
7,COCCNCCC(=O)Nc1sc2c(c1-c1nc3ccc(-c4ccnc5[nH]ccc45)cc3s1)CCNC2,> 10
8,COCCNCCC(=O)Nc1sc2c(c1-c1nc3cc(-c4cc5ccccc5[nH]4)ccc3s1)CCNC2,> 10
9,COCCNCCC(=O)Nc1sc2c(c1-c1nc3ccc(-c4cnc(OC)nc4)cc3s1)CCNC2,1 to 10
10,CNS(=O)(=O)c1ccccc1-c1ccc2nc(-c3c(NC(=O)CCNCCOC)sc4c3CCNC4)sc2c1,> 10
11,COCCNCCC(=O)Nc1sc2c(c1-c1nc3ccc(-c4c(C)n[nH]c4C)cc3s1)CCNC2,> 10
12,CC(C)N1CCc2c(sc(NC(=O)CCNc3ccccc3)c2-c2nc3ccccc3s2)C1,> 10
13,COCCNCCC(=O)Nc1sc2c(c1-c1nc3cc(-c4ccc(O)c(F)c4)ccc3s1)CCNC2,> 10
14,COCCNCCC(=O)Nc1sc2c(c1-c1nc3ccc(-c4ccc5c(c4)NC(=O)CO5)cc3s1)CCNC2,> 10
15,COCCNCCC(=O)Nc1sc2c(c1-c1nc3cc(-c4ccc5c(c4)NC(=O)CO5)ccc3s1)CCNC2,1 to 10
16,COCCNCCC(=O)Nc1sc2c(c1-c1nc3ccc(-c4ccc(OC)nc4)cc3s1)CCNC2,1 to 10
17,COCCNCCC(=O)Nc1sc2c(c1-c1nc3ccc(-c4cccnc4C)cc3s1)CCNC2,> 10
18,COCCNCCC(=O)Nc1sc2c(c1-c1nc3cc(-c4ccc5ncccc5c4)ccc3s1)CCNC2,> 10
19,COc1ccccc1-c1ccc2sc(-c3c(NC(=O)CCNC(C)C)sc4c3CCNC4)nc2c1,1 to 10
20,COc1ccc(-c2ccc3sc(-c4c(NC(=O)CCNC(C)C)sc5c4CCNC5)nc3c2)cc1,< 0.3
21,COCCNCCC(=O)Nc1sc2c(c1-c1nc3cc(-c4ccccc4S(C)(=O)=O)ccc3s1)CCNC2,> 10
22,COCCNCCC(=O)Nc1sc2c(c1-c1nc3ccc(-c4ccccc4NS(C)(=O)=O)cc3s1)CCNC2,> 10
23,COCCNCCC(=O)Nc1sc2c(c1-c1nc3ccc(-c4ccccc4S(C)(=O)=O)cc3s1)CCNC2,> 10

row,SMILES,IC50 [µM]
1,O=C(CC1CCCN1)Nc1sc2c(c1-c1nc3ccccc3s1)CCNC2 (centres undefined),0.3 to 1
2,COCCNCCC(=O)Nc1sc2c(c1-c1nc3cc(-c4ccc5c(c4)NC(=O)C5)ccc3s1)CCNC2,> 10
3,CC(C)NCCC(=O)Nc1sc2c(c1-c1nc3cc(-n4cncn4)ccc3s1)CCNC2,< 0.3
4,COCCNCCC(=O)Nc1sc2c(c1-c1nc3ccc(-c4cc5ccccc5[nH]4)cc3s1)CCNC2,> 10
5,COCCNCCC(=O)Nc1sc2c(c1-c1nc3ccc(-c4cnc(N)c(C(F)(F)F)c4)cc3s1)CCNC2,> 10
6,CC(C)N1CCc2c(sc(NC(=O)CCNc3cccc(F)c3)c2-c2nc3ccccc3s2)C1,> 10
7,COCCNCCC(=O)Nc1sc2c(c1-c1nc3ccc(-c4ccc(C(=O)N(C)C)cc4F)cc3s1)CCNC2,0.3 to 1
8,CC(C)NCCC(=O)Nc1sc2c(c1-c1nc3cc(C4=CCNCC4)ccc3s1)CCNC2,< 0.3
9,COCCNCCC(=O)Nc1sc2c(c1-c1nc3cc(-c4ccc(OC)nc4C)ccc3s1)CCNC2,> 10
10,COCCNCCC(=O)Nc1sc2c(c1-c1nc3cc(-c4cc(F)cnc4OC)ccc3s1)CCNC2,1 to 10
11,COCCNCCC(=O)Nc1sc2c(c1-c1nc3cc(-c4cccnc4OC)ccc3s1)CCNC2,> 10
12,COCCNCCC(=O)Nc1sc2c(c1-c1nc3cc(-c4ccc(C)c(C#N)c4)ccc3s1)CCNC2,> 10
13,COCCNCCC(=O)Nc1sc2c(c1-c1nc3ccc(-c4cccc(C#N)c4)cc3s1)CCNC2,1 to 10
14,COCCNCCC(=O)Nc1sc2c(c1-c1nc3cc(-c4ccccc4O)ccc3s1)CCNC2,1 to 10
15,COCCNCCC(=O)Nc1sc2c(c1-c1nc3ccc(-c4cccc(C(=O)N5CCN(C)CC5)c4)cc3s1)CCNC2,0.3 to 1
16,CNC(=O)Nc1ccc(-c2ccc3sc(-c4c(NC(=O)CCNCCOC)sc5c4CCNC5)nc3c2)cc1,1 to 10
17,CC(C)NCCC(=O)Nc1sc2c(c1-c1nc3cc(-c4ccccc4)ccc3s1)CCNC2,0.3 to 1
18,COCCNCCC(=O)Nc1sc2c(c1-c1nc3cc(-c4ccnc5[nH]ccc45)ccc3s1)CCNC2,1 to 10
19,COCCNCCC(=O)Nc1sc2c(c1-c1nc3ccc(-c4ccc(O)c(F)c4)cc3s1)CCNC2,> 10
20,COCCNCCC(=O)Nc1sc2c(c1-c1nc3ccc(-c4ccc(C)nc4OC)cc3s1)CCNC2,> 10
21,CC(C)N1CCc2c(sc(NC(=O)CCNc3ccc(-c4nnn[nH]4)cc3)c2-c2nc3ccccc3s2)C1,> 10
22,COCCNCCC(=O)Nc1sc2c(c1-c1nc3cc(-c4cnc(OC)c(OC)c4)ccc3s1)CCNC2,1 to 10
23,COCCNCCC(=O)Nc1sc2c(c1-c1nc3ccc(-c4ccc5ncccc5c4)cc3s1)CCNC2,> 10

row,SMILES,IC50 [µM]
1,COCCNCCC(=O)Nc1sc2c(c1-c1nc3ccc(-c4ccccc4NC(C)=O)cc3s1)CCNC2,> 10
2,COCCNCCC(=O)Nc1sc2c(c1-c1nc3c(N4CCCC4)cccc3s1)CCNC2,< 0.3
3,COCCNCCC(=O)Nc1sc2c(c1-c1nc3ccc(-c4ccc5c(c4)NC(=O)C5)cc3s1)CCNC2,1 to 10
4,COCCNCCC(=O)Nc1sc2c(c1-c1nc3ccc(-c4ccccc4Cl)cc3s1)CCNC2,> 10
5,O=C(Nc1sc2c(c1-c1nc3ccccc3s1)CCNC2)C1CNC1,< 0.3
6,COCCNCCC(=O)Nc1sc2c(c1-c1nc3ccc(-c4cncc(OCCOC)c4)cc3s1)CCNC2,> 10
7,COCCNCCC(=O)Nc1sc2c(c1-c1nc3cc(-c4cc5cccc(OC)c5[nH]4)ccc3s1)CCNC2,1 to 10
8,COCCNCCC(=O)Nc1sc2c(c1-c1nc3c(C)cccc3o1)CCNC2,0.3 to 1
9,COCCNCCC(=O)Nc1sc2c(c1-c1nc3ccc(-c4ccc(N5CCOCC5)nc4)cc3s1)CCNC2,> 10
10,COCCNCCC(=O)Nc1sc2c(c1-c1nc3ccc(-c4cccc5[nH]ncc45)cc3s1)CCNC2,1 to 10
11,COCCNCCC(=O)Nc1sc2c(c1-c1nc3cc(-c4ccc5cnn(C)c5c4)ccc3s1)CCNC2,0.3 to 1
12,COCCNCCC(=O)Nc1sc2c(c1-c1nc3ccc(-c4ccc5c(c4)OCO5)cc3s1)CCNC2,> 10
13,COCCNCCC(=O)Nc1sc2c(c1-c1nc3ccc(-c4cnn(Cc5ccccc5)c4)cc3s1)CCNC2,1 to 10
14,COc1cccc(NCCC(=O)Nc2sc3c(c2-c2nc4ccccc4s2)CCN(C(C)C)C3)c1,1 to 10
15,COCCNCCC(=O)Nc1sc2c(c1-c1nc3cc(-c4cccc5cccnc45)ccc3s1)CCNC2,> 10
16,COCCNCCC(=O)Nc1sc2c(c1-c1nc3cc(-c4cccc(C(=O)N5CCN(C)CC5)c4)ccc3s1)CCNC2,1 to 10
17,COCCNCCC(=O)Nc1sc2c(c1-c1nc3ccc(-c4cccnc4F)cc3s1)CCNC2,> 10
18,COCCNCCC(=O)Nc1sc2c(c1-c1nc3ccc(-c4cnc(N5CCOCC5)nc4)cc3s1)CCNC2,> 10
19,CC(C)N1CCc2c(sc(NC(=O)CCNc3cccc(O)c3)c2-c2nc3ccccc3s2)C1,1 to 10
20,Cc1cc(C)c(CNCCC(=O)Nc2sc3c(c2-c2nc4ccccc4s2)CCN(C(C)C)C3)c(=O)[nH]1,1 to 10

# From ChEMBL document CHEMBL4476874, “Compounds for the modulation of myc activity” (2018)
